Test results as given in patent US4487965A, “Trans-3-(4'-tert.-Butylcyclohex-1'yl)-2-methyl-1-dialkylaminopropanes, their preparation and their use as drugs” (BASF Aktiengesellschaft, priority 1982, dated 1984).

Legend:
[1] = test system: Trichophyton mentagrophytes; experiment: guinea pig trichophytosis model, external application; format: in vivo; settings: externally once daily
Protocol: Furthermore, the novel compounds were tested in the guinea pig trichophyt is model (Trichophyton mentagrophytes; cf. Heffter-Heubner: Handbuch der experimentellen Pharmakologie, Volume XVI/11A, Springer Verlag, Berlin, Heidelberg, New York, 1967), in which the compounds were applied externally in the form of 0.2, 0.5 and 1% strength suspensions. Application was effected once daily for 4 and 7 days respectively. After the 4th and 7th day of treatment, and 7 days after the last treatment, hairs or scales were pulled off at from 3 to 5 points in the infected area in each animal, and were incubated in Sabourand dextrose bouillon.
Evaluation was carried out by monitoring fungal growth after incubation for 8 days.

[2] = test system: Trichophyton mentagroph. ATCC 4807; experiment: in vitro antimicrobial activity, agar dilution test (minimum inhibitory concentrations); format: cell-based, Trichophyton mentagrophytes
Protocol: (§1) The in vitro antimicrobial activity against microorganisms was determined in the agar dilution test (P. Klein, loc. cit.).

[3] = test system: Mikrosporon ferrugineum CBS 317.31; experiment: as above; format: cell-based
Protocol: as §1

[4] = test system: Candida albicans ATCC 14052; experiment: as above; format: cell-based
Protocol: as §1

[5] = test system: Epidermophyton floccosum ATCC 10227; experiment: as above; format: cell-based
Protocol: as §1

[6] = 0.2% suspension, 7 days after treatment
[7] = 1.0% suspension, 7 days after treatment

| Structure (SMILES) | fraction of animals in which infection was observed ([1]; 0.2% suspension, 4 days) | fraction of animals in which infection was observed ([1]; 0.2% suspension, 7 days) | fraction of animals in which infection was observed [1, 6] | fraction of animals in which infection was observed ([1]; 1.0% suspension, 4 days) | fraction of animals in which infection was observed ([1]; 1.0% suspension, 7 days) | fraction of animals in which infection was observed [1, 7] | Minimum inhibitory concentrations [2] | Minimum inhibitory concentrations [3] | Minimum inhibitory concentrations [4] | Minimum inhibitory concentrations [5] | fraction of animals in which infection was observed ([1]; 0.5% suspension, 4 days) | fraction of animals in which infection was observed ([1]; 0.5% suspension, 7 days) | fraction of animals in which infection was observed ([1]; 0.5% suspension, 7 days after treatment) |
| --- | --- | --- | --- | --- | --- | --- | --- | --- | --- | --- | --- | --- | --- |
| Clc1ccccc1C(c1ccccc1)(c1ccccc1)n1ccnc1 [Clotrimazole, reference compound] | 3/5 | 3/5 | 3/5 | 2/5 | 0/5 | 3/5 | – | – | – | – | – | – | – |
| Cc1cccc(N(C)C(=S)Oc2ccc3ccccc3c2)c1 [Tolnaftate, reference compound] | – | – | – | 0/9 | 0/9 | 2/9 | – | – | – | – | – | – | – |
| CCCN(CCC)CC(C)C[C@H]1CC[C@H](C(C)(C)C)CC1 (stereo partly drawn) [Example 1, trans-3-(4'-tert.-Butylcyclohex-1'-yl)-2-methyl-1-(N-di-n-propylamino)-propane] | 3/5 | 2/5 | 1/5 | 1/5 | 0/5 | 0/5 | < 0.125 | < 0.125 | < 0.125 | < 0.125 | 0/5 | 0/5 | 0/5 |
| CCCN(CC)CC(C)C[C@H]1CC[C@H](C(C)(C)C)CC1 (stereo partly drawn) [Example 2, trans-3-(4'-tert.-Butylcyclohex-1'-yl)-2-methyl-1-(N-ethyl-N-n-propylamino)-propane] | – | – | – | – | – | – | 0.25 | < 0.125 | 1 | 0.25 | – | – | – |
